Test results published in ChEMBL document CHEMBL1135161, “Antimalarial activities of ring-substituted bioimidazoles” (Bioorg Med Chem Lett, 2002).
Activity calls are given as the source filed them. The rule behind the calls is not given here.

Tests used:
[1] = test system: Plasmodium falciparum; test: In vitro antimalarial activity against chloroquine-sensitive Plasmodium falciparum; assay type: functional, organism-based
[2] = test system: Mus musculus; test: In vivo antimalarial activity of compound against Plasmodium berghei infected in mice (Mus musculus) model. Compound active at given dose.; assay type: functional
[3] = test system: Plasmodium falciparum; test: In vitro antimalarial activity against chloroquine-resistant Plasmodium falciparum; assay type: functional, organism-based
[4] = test system: Mus musculus; test: In vivo antimalarial activity of compound against Plasmodium berghei infected in mice (Mus musculus) model; Inactive; assay type: functional, organism-based

Row | IC50 [1] [µM] | Structure (SMILES) | also measured
1 | > 500 | Cn1c(CC(N)C(=O)O)cnc1C(C)(C)C (stereo not given) | 
2 | > 500 | NC(Cc1cnc(C23CC4CC(CC(C4)C2)C3)n1Cc1ccccc1)C(=O)O (stereo not given) | 
3 | > 500 | Cc1nc(CC(N)C(=O)O)c[nH]1 (stereo not given) | 
4 | 360 | NC(Cc1cn(Cc2ccccc2)cn1)C(=O)O (stereo not given) | 
5 | > 500 | Cn1cc(CC(N)C(=O)O)nc1C1CCCCC1 (stereo not given) | 
6 | 450 | NC(Cc1c[nH]c(C23CC4CC(CC(C4)C2)C3)n1)C(=O)O (stereo not given) | 
7 | > 500 | NCCc1cnc(C2CCCCC2)n1Cc1ccccc1 | 
8 | 399 | CC(C)(C)c1ncc(CC(N)C(=O)O)n1Cc1ccccc1 (stereo not given) | 
9 | 157 | CC(C)(C)c1nc(CC(N)C(=O)O)cn1Cc1ccccc1 (stereo not given) | 
10 | > 500 | NC(Cc1cnc(C2CCCCC2)n1Cc1ccccc1)C(=O)O (stereo not given) | 
11 | 350 | NC(Cc1c[nH]c(C2CCCCC2)n1)C(=O)O (stereo not given) | 
12 | 120 | CC(C)n1cnc(CC(N)C(=O)O)c1 (stereo not given) | 
13 | > 500 | Cn1cnc(CC(N)C(=O)O)c1 (stereo not given) | 
14 | > 500 | CCn1cnc(CC(N)C(=O)O)c1 (stereo not given) | 
15 | 355 | CC(C)c1ncc(CC(N)C(=O)O)n1Cc1ccccc1 (stereo not given) | 
16 | > 500 | CCc1nc(CC(N)C(=O)O)c[nH]1 (stereo not given) | 
17 | > 500 | Cn1cc(CC(N)C(=O)O)nc1C(C)(C)C (stereo not given) | 
18 | 276 | NC(Cc1c[nH]c(C2CCCC2)n1)C(=O)O (stereo not given) | 
19 | > 500 | CC(C)c1nc(CC(N)C(=O)O)cn1C (stereo not given) | 
20 | 188 | CC(C)c1ncc(CCN)n1Cc1ccccc1 | 
21 | 233 | CC(C)(C)c1ncc(CCN)n1Cc1ccccc1 | 
22 | 255 | NC(Cc1c[nH]c(C2CCC2)n1)C(=O)O (stereo not given) | 
23 | > 500 | NCCc1cnc(C23CC4CC(CC(C4)C2)C3)n1Cc1ccccc1 | 

Row | Structure (SMILES) | IC50 [1] [µM] | also measured
24 | CC(C)c1nc(CCN)cn1C | 387 | 
25 | C=CCn1cnc(CCN)c1 | 176 | 
26 | CC(C)c1nc(CC(N)C(=O)O)c[nH]1 (stereo not given) | 6.3 | Dose [2]: 100 mg/kg; IC50 [3]: 6.5 µM
27 | Cn1cc(CCN)nc1C1CCCCC1 | > 500 | 
28 | CC(C)n1cnc(CCN)c1 | 9.6 | Dose [2]: 100 mg/kg; IC50 [3]: 10.4 µM
29 | CC(C)c1nc(CC(N)C(=O)O)cn1Cc1ccccc1 (stereo not given) | 89 | DOSE [4]: inactive; IC50 [3]: 245 µM
30 | NCCc1c[nH]c(C2CCC2)n1 | 367 | 
31 | CCn1cnc(CCN)c1 | > 500 | 
32 | CCc1nc(CCN)c[nH]1 | > 500 | 
33 | CC(C)c1nc(CCN)c[nH]1 | 4.7 | Dose [2]: 100 mg/kg; IC50 [3]: 4.8 µM
34 | Cn1cnc(CCN)c1 [N-METHYLHISTAMINE] | > 500 | 
35 | CC(C)(C)c1nc(CCN)c[nH]1 | 15.5 | DOSE [4]: inactive; IC50 [3]: 30.3 µM
36 | NCCc1c[nH]c(C2CCCC2)n1 | 489 | 
37 | Cn1cc(CCN)nc1C(C)(C)C | 459 | 
38 | NCCc1c[nH]c(C2CCCCC2)n1 | > 500 | 
39 | NCCc1cn(Cc2ccccc2)cn1 | 20.7 | DOSE [4]: inactive; IC50 [3]: 22.5 µM
40 | CC(C)(C)c1nc(CC(N)C(=O)O)c[nH]1 (stereo not given) | 25.8 | DOSE [4]: inactive; IC50 [3]: 3.85 µM
41 | Cc1ncc(CCN)[nH]1 [2-METHYLHISTAMINE] | > 500 | 
